Assay results from patent publication EP0199291A1 (priority 1985, dated 1986).
Where two headings read alike, the source gives them in different places.

Legend:
TNP-C3H = conditions: for cytotoxische Aktivität (% 51Cr-Freisetzung): Stimulans und Target TNP-C3H, 1 x 10^-2 mol/l, 5 days
Procedure: (§1) 20 Millionen Responderzellen (üblicherweise C3H Milzzellen)wurden mit 1×10^6 bestrahlten (1500 rad) allogenen oder trinitrophenylierten syngenen Stimulatorzellen in einem Gesamtvolumen von 4,5 ml Kulturmedium (RPMI 1640, GIBCO Medium supplementiert mit 10mM L-Gutamin (GIBCO), Streptomycin/Penicillin (GIBCO), Streptomycin/ Penicillin (GIBCO; 100 units/ml), 0,5 % HEPES (GIBCO), 10% fötalem Kälberserum (GIBCO) und 3×10^-5 Mol/l 2-Mercaptoäthanol) 5 Tage bei 37°C in 5% CO2 incubiert. Responder-und Stimulatorzellen waren Milzzellen.
(§2) Die Kulturen wurden nach 5 Tagen auf cytotoxische Aktivität gegen Con A-aktivierte allogene oder trinitrophenylierte syngene Milzlynphoblasten in einem 4-Stunden 51Cr-Release assay in bekanntem Weise getestet.
(§3) Der Effekt in vitro (mittlere und rechte Zeichnung der Fig. 1) wurde wie folgt bestimmt: • C3H Milzzellen (2 x 10^7) wurden mit 1 x 10^6 bestrahlten und Trinitrophenylen-behandelten C3H Milzzellen (Mitte) oder 1 x 10^6 bestrahlte C57BL/6 Milzzellen (rechts) und mit den angegebenen Endkonzentrationen von Ornithin in 4,5 ml Kulturen 5 Tage inkubiert. Die cytotoxische Aktivität gegen die entsprechenden Targetzellen wurde nach 5 Tagen getestet.
(§4) C3H Milzzellen (2 x 10^7) wurden mit 1 x 10^6 bestrahlten und Trinitrophenylen-behandelten C3H Milzzellen (links) oder 1 x 10^6 bestrahlten C57BL/6 Milzzellen (rechts) in 4,5 ml Kulturen 5 Tage inkubiert. […] Die Abszisse zeigt die Endkonzentration von Ornithin in der Kultur. Die cytotoxische Aktivität gegen die entsprechenden Targetze1len wurde nach 5 Tagen bei Angreifer: Ziel-Zellen-Verhältnissen von 25:1, 5:1 und 1:1 untersucht. Figur 3 zeigt die relative cytotoxische Aktivität beim Angreifer: Ziel-Zellen-Verhältnis 25:1. (Die Kontrollantwort ohne Ornithin zeigte 54% (links) bzw. 50% (rechts) ^51Cr-release).
(§5) Die Ergebnisse geben die cytotoxische Aktivität (% ^51Cr-Freisetzung) gegen homologe Targetzellen nach 5 Tagen bei Angreifer:Targetzel len-Verältnissen von 25:1, 5:1 und 1:1 an.

C57BL/6 = conditions: Stimulans und Target C57BL/6, 1 x 10^-2 mol/l, 5 days
Procedure: as §1, §2, §3, §4, §5

[1] = test system: IL 2 abhängige W-2 T-Zelllinie; conditions: control solutions with increasing amounts in culture medium
Procedure: (§6) Die IL 2 Titer wurden mit der IL 2 abhängigen W-2 T-Zelllinie in bekannter Weise bestimmt.
Ansteigende Konzentrationen von Ornithin wurden Kulturen von con-A-aktivierten Konzentrationen von Ornithin C3H Milzzellen (10^7 Zellen + 5 µg con-A pro ml) zugesetzt. Die erhaltenen Überstände wurden 24 h später isoliert und auf Interleukin-2 und Interferonaktivität getestet. […] C3H Milzzellkulturen mit l ug/ml con-A sowie allogene "Genischte-Lymphozyten-Kulturen" mit 10^7 nicht-bestrahltenC3H Milzzellen' plus 10^7 nicht- bestrahltenC57BL/6 Milzzellen wurden eben- falls mit steigenden Konzentrationen von Ornithin angesetzt.

[2] = test system: PMA-aktivierte EL-4 Thymomzellen; conditions: same concentrations as in Fig. 5
Procedure: as §6
Die Überstände werden aus einer IL-2 produzierenden EL-4 Thymom-Sublinie nach Induktion mit Phorbolmyristinacetat (PMA) in bekannter Weise erhalten. Es wurden 10^6 EL-4 Zellen pro ml zusammen mit 10 ng/ml PMA (SIGMA) 48 h inkubiert. Die Überstände wurden gesammelt und bei -20°C gefroren gelagert.
(§7) Die resultierenden Überstände wurden dann durch Zentrifugation isoliert und auf Interleukin-2 und Interferon- Aktivität getestet, wie im Methodenteil beschrieben.

[3] = test system: con-A-aktivierte C3H Milzzellen; conditions: 9 x 10^-3 mol/l; Con A 5 µg/ml; 24 h (Fig. 5)
Procedure: as §6, §7
Ansteigende Konzentrationen von Ornithin wurden Kulturen von con-A-aktivierten Konzentrationen von Ornithin C3H Milzzellen (10^7 Zellen + 5 µg con-A pro ml) zugesetzt. Die erhaltenen Überstände wurden 24 h später isoliert und auf Interleukin-2 und Interferonaktivität getestet.

[4] = Angreifer:Targetzellen 1:1, control without additive 4,8
[5] = Angreifer:Targetzellen 5:1, control without additive 17,7
[6] = Angreifer:Targetzellen 25:1, control without additive 33,5
[7] = Angreifer:Targetzellen 1:1, control without additive 16,3
[8] = Angreifer:Targetzellen 5:1, control without additive 32,0
[9] = Angreifer:Targetzellen 25:1, control without additive 54,9
[10] = summary statement, see Tabelle I

Row | Structure (SMILES) | Hemmwirkung auf die Aktivierung cytotoxischer T-Lymphozyten (TNP-C3H) | cytotoxische Aktivität (% 51Cr-Freisetzung) (C57BL/6; [4]) | cytotoxische Aktivität (% 51Cr-Freisetzung) (C57BL/6; [5]) | cytotoxische Aktivität (% 51Cr-Freisetzung) (C57BL/6; [6]) | cytotoxische Aktivität (% 51Cr-Freisetzung) (TNP-C3H; [7]) | cytotoxische Aktivität (% 51Cr-Freisetzung) (TNP-C3H; [8]) | cytotoxische Aktivität (% 51Cr-Freisetzung) (TNP-C3H; [9]) | Hemmwirkung auf die Aktivierung cytotoxischer T-Lymphozyten (TNP-C3H; [10]) | also measured
1 | C[C@H](N)C(=O)O [L-Alanin] | nicht zu beobachten |  |  |  |  |  |  |  | 
2 | N[C@@H](Cc1c[nH]cn1)C(=O)O [L-Hystidin, L-Histidin] |  | 5,1% | 11,4% | 24,5% | 11,1% | 27,8% | 48,5% | nicht zu beobachten | 
3 | NCCCC[C@H](N)C(=O)O [L-Lysin] |  | 9,0% | 19,1% | 41,7% | 21,5% | 39,9% | 60,7% | nicht zu beobachten | 
4 | NCCC[C@H](N)C(=O)O [L-Ornithin] |  |  |  |  |  |  |  |  | Interleukin-2-Aktivität (of the substance itself) [1]: keine Interleukin-2 oder Interferon-Aktivität; Interleukin-2-Produktion von PMA-aktivierten EL-4 Thymomzellen [2]: nicht supprimiert; Effekt auf die Produktion von IL-2 [3]: keinen wesentlichen Effekt
5 | NCCCCN [Putrescin] | nicht zu beobachten |  |  |  |  |  |  |  | 
